Results published in patent US20260102387A1, “IMMUNOSUPPRESSIVE COMPOUNDS” (UNIVERSITÄT BASEL, priority 2022, published 2026).
Entries after “also recorded” stand apart in the source; their conditions may differ.

Tests used:
CMV promoter = experiment: EC50 analysis for CMV promoter driven RFP inhibition (non-specific activity) by flow cytometry in RBL cells; format: cell-based, cytomegalovirus; conditions: 48-65 h, read-out: EC50 RFP alteration
Description: RBL cells expressing GFP under coronin 1 promoter and optionally with RBL cells expressing RFP under CMV promoter were mixed in equal numbers and incubated with the compounds at indicated concentrations for 48-65 h and analyzed by flow cytometry for alteration in coronin 1 promoter (GFP fluorescence), CMV promoter (RFP fluorescence) values. In addition, the cells were labelled with live-dead marker for assessing cell viability status by flow cytometry. Cycloheximide (CHX) serves as positive control and DMSO serves as negative controls. Effective Concentration (EC50) values for coronin 1 promoter inhibition via GFP fluorescence analysis, non-specific promoter inhibition via CMV promoter driven-RFP fluorescence analysis and cell viability via live/dead staining as a measure for toxicity in flow cytometry for compounds (10-22 and 50a-65a) are shown in Table 6 and Table 7. Based on the EC50 analysis of the inhibition of coronin 1 promoter driven GFP fluorescence the (4S,7R)-configurated eutomers were identified (Structures FIG. 9A-C). This is exemplified for compounds containing two stereocenters by eutomers 11c and 13a. […] Subsequent EC50 evaluations (Table 7) were performed with compound 13a as standard for relative potency normalized to a value of 1.00 (relative potency calculated as [EC50 GFP inhibition 13a]/[EC50 GFP inhibition compound of interest]).

RBL cells = experiment: Cell viability by live-dead staining (cytotoxicity), flow cytometry; format: cell-based, Rat; conditions: Rattus norvegicus, RBL, cell viability via live/dead staining, 48-65 h, read-out: EC50 Toxicity
Method in brief: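 RBL cells with coronin 1 promoter-GFP, mixed 1:1 with CMV promoter-RFP RBL cells, exposed to compound 48-65 h. Flow cytometry read RFP fluorescence for non-specific promoter inhibition and live-dead staining for cytotoxicity. EC50 values derived; cycloheximide positive control, DMSO negative.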

coronin 1 promoter = experiment: EC50 analysis for coronin 1 promoter driven GFP inhibition by flow cytometry in RBL cells; format: cell-based; conditions: RBL, RBL cells, 48-65 h, flow cytometry
Method in brief: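 RBL cells carrying coronin 1 promoter–GFP, mixed with CMV promoter–RFP cells, exposed to compounds 48–65 h and analyzed by flow cytometry with live/dead staining. EC50 derived from GFP inhibition, with RFP and viability as nonspecific and toxicity counter-reads; cycloheximide and DMSO as controls, relative potency normalized to a reference compound.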

coronin 1 = experiment: Western blotting of coronin 1 protein levels in RBL cells; format: cell-based, Rat; conditions: RBL cell lines, chemiluminescence imager
Description: buffer with 0.2% SDS containing protease and phosphatase inhibitors (Roche) at 4° C., followed by protein determination (BCA, Pierce) and SDS-PAGE with equal protein amounts transferred onto nitrocellulose and probed using antibodies against the indicated proteins (actin and coronin 1) followed by HRP-labeled secondary antibodies and developed using an enhanced chemi-luminescence imager (Fuji) (FIG. 3C).

[1] = system: early cytomegalovirus promoter; experiment: Screening assay control: CMV promoter driven RFP in RBL cells (microplate reader); format: cell-based; conditions: 5 μg/ml, 48 h, microplate reader, DMSO = 100, read-out: RFP values (%)
Description: As an unrelated promoter, the early cytomegaloviral promoter element was cloned into a promoterless Red Fluorescence Protein (RFP) expression plasmid. Rat Basophil Leukemia (RBL) cells were transfected with the plasmid, stable RFP expressing cells enriched, incubated with various compounds and were assessed for red fluorescence values. Analyzing the inhibition of an unrelated promoter (in this case, early cytomegalovirus promoter) that drove Red Fluorescence Protein (RFP) expression assessed non-specificity of the compound under analysis.
(§1) The plasmids were independently transfected into immune cells (Rat basophil Leukemia, RBL cells) to generate green and red fluorescent RBL cells that were subsequently enriched by means of flow cytometry. These cells were then mixed in equal ratio (1:1) and incubated in a 96 well plate at 100,000 cells/well in a volume of 200 μl of phenol red free RPMI supplemented with 8% fetal calf serum, L-glutamate and antibiotics (penicillin, streptomycin) and various compounds (3 and 5 μg/ml concentrations) from available chemical libraries. At defined time points (8 h, 24 h and 48 h), the GFP and RFP fluorescence was measured using a 96 well microplate reader (Synergy, BioTek Instruments). […] Selected compounds show different levels of modulation of coronin 1 promoter driven GFP and CMV promoter driven RFP fluorescence. GFP and RFP fluorescence were analyzed with a microplate reader upon incubation with the top coronin 1 promoter inhibiting compounds. Shown are percentage of GFP reduction (left column) and percentage of RFP reduction (right column) for the compounds at 5 μg/ml concentration at 48 h. Cycloheximide (CHX) serves as positive control whereas media and DMSO serve as negative controls. […] Cells were imaged using a fluorescence microscope to validate fluorescence inhibition (FIG. 3A) and as well assess morphology and viability (in addition to GFP down regulation confirmation). In addition, quantitative Polymerase Chain Reaction (qPCR) for coronin 1 mRNA transcripts reveal reduction with compound 11 (FIG. 3B). The primers used for the qPCR on RBL cells are listed below as follows;

[2] = In vivo toxicity: hematological parameters (ADVIA) and body weight; conditions: 150 mg/kg/body weight, BD, IP, six-day administration
Description: Coronin 1 expression inhibitor (compound 11) was initially dissolved in DMSO at 100 mg/ml concentration. In parallel, a 50:50 solution of miglyol 812 and kolliphor EL (M+K) was prepared. Coronin 1 expression inhibitor: M+K was mixed at a ratio of 30:70 and vortexed for 5 minutes to make a homogenous suspension such that a final concentration of 30 mg/ml was obtained. 100 μl/mouse was subsequently administered either intraperitoneally or subcutaneously using an insulin syringe. The mice used for the study were separated into age and sex matched cohorts, weighed prior to start of the study and regularly monitored for body weight, behavioural changes, fur changes, faecal consistency and urine colour. […]

[3] = system: human PBMCs (CD4 and CD8 T cells); experiment: Proinflammatory cytokine production in human PBMCs after CD3/CD28 stimulation, flow cytometry; format: cell-based; conditions: 10 μg/ml, 4.5 days, CD3 and CD28 antibodies
Description: Heparinized or EDTA treated blood or buffy coat from healthy volunteers were enriched for monocytes using the standard Histopaque 1.077 gradient centrifugation methodology. Post enrichment, the monocyte fraction was washed extensively with plain RPMI and subsequently counted and seeded in 96 well plate at a density of 0.2 million cells/well in a volume of 200 μl RPMI-1640 (Sigma) containing 1× penicillin and streptomycin (Gibco), 2 mM L-glutamine (Gibco), 10% heat inactivated FCS (PAA) and heparin 50 units/ml along with the vehicle (DMSO) or coronin 1 inhibitor at indicated concentrations. Cells were incubated in a 37° C. humidified incubator with a 5% CO2 for five days with the expression inhibitor and vehicle replenished in between at 48 hours post seeding by replacing 50% of the media. Subsequently, the cells were assessed for coronin 1 down regulation by Western blotting (FIG. 8A) and in parallel stimulated with anti-CD3 (2 μg/ml) and anti-CD28 (10 μg/ml) antibodies overnight and treated with brefeldin A for a duration of 4 h and subjected to surface staining (for CD3, CD4, CD8 and CD19) along with live-dead marker and fixed with 4% formaldehyde, permeabilized with 0.1% saponin and subjected to intracellular staining for interleukin-2 (FIG. 8B,C).

coronin 1 mRNA = experiment: Quantitative PCR of coronin 1 mRNA in RBL cells; format: cell-based, Rat; conditions: 3.5 μg/ml, 7 days
Description: as §1, with “compounds.” for “compounds. Shown are percentage of GFP reduction (left column) and percentage of RFP reduction (right column) for the compounds at 5 μg/ml concentration at 48 h. Cycloheximide (CHX) serves as positive control whereas media and DMSO serve as negative controls.”, “The primers used for the qPCR on RBL cells are listed below as follows;” left out

**Q.** For `COC(=O)C1=C(C)NC2=C(C(=O)CC(c3ccccc3OC)C2)C1c1cccc(O)c1` (centres unmarked) [Comp. 11, methyl-4-(3-hydroxyphenyl)-7-(2-methoxyphenyl)-2-methyl-5-oxo-1,4,5,6,7,8-hexahydro-3-quinolinecarboxylate], which EC50 (CMV promoter) is on record?
**A.** > 9 µM

**Q.** What about the EC50 (RBL cells) of the same compound?
**A.** > 9 µM

**Q.** And the EC50 (coronin 1 promoter)?
**A.** 1.2 µM

**Q.** What about the “coronin 1 depletion (Western blotting, protein level)” value (coronin 1) of the same compound?
**A.** ~80%

**Q.** What about the activity at 5 µg/mL [1] of the same compound?
**A.** 111%

**Q.** And the “in vivo toxicity: hematological parameters (RBC, WBC, platelet counts, hemoglobin), body weight” value [2]?
**A.** did not reveal any potential toxicity; also recorded: good safety and tolerability

**Q.** What about the “production of interleukin-2 (IL-2) in CD4 and CD8 T cells post T cell receptor stimulation” value [3] of the same compound?
**A.** attenuates immune responses

**Q.** What about the “coronin 1 mRNA transcripts (qPCR)” value (coronin 1 mRNA) of the same compound?
**A.** reduction in coronin 1 transcripts
